Test results: US9663543B2 (priority 2014, dated 2017)
pIC50: −log10 of the molar value.

These compounds were tested against Human factor D (Homo sapiens (Human), UniProt P00746).
Chain of Human factor D (P00746 26-253 limits assumed): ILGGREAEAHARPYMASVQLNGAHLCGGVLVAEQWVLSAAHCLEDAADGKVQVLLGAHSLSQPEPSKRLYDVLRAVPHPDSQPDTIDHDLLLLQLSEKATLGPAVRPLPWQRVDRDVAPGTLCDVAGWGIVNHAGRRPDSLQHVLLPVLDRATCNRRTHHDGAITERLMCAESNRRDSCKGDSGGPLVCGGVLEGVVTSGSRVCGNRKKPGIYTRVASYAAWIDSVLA
Type: biochemical
Work on `CC(=O)c1cn(CC(=O)N2C[C@H](F)C[C@H]2C(=O)NCc2cccc(Cl)c2F)c2cc(P(=O)(O)OCOC(=O)C(C)(C)C)ccc12` [Compound 28, ((3-acetyl-1-(2-((2S,4R)-2-(3-chloro-2-fluorobenzylcarbamoyl)-4-fluoropyrrolidin-1-yl)-2-oxoethyl)-1H-indol-6-yl)(hydroxy)phosphoryloxy) methyl pivalate] yielded a pIC50 greater than 6.00. `CC(=O)c1cn(CC(=O)N2C[C@H](F)C[C@H]2C(=O)NCc2cccc(Cl)c2F)c2cc(P(=O)(O)OCC(F)(F)F)ccc12` [Compound 29, 2,2,2-trifluoroethyl hydrogen 3-acetyl-1-(2-((2S,4R)-2-(3-chloro-2-fluorobenzylcarbamoyl)-4-fluoropyrrolidin-1-yl)-2-oxoethyl)-1H-indol-6-ylphosphonate] gave a pIC50 greater than 6.00. `CCOP(=O)(OCC)c1cc2c(cc1F)c(C(C)=O)cn2CC(=O)N1C[C@H](F)C[C@H]1C(=O)NCc1cccc(Cl)c1F` [Compound 30, diethyl 3-acetyl-1-(2-((2S,4R)-2-(3-chloro-2-fluorobenzylcarbamoyl)-4-fluoropyrrolidin-1-yl)-2-oxoethyl)-5-fluoro-1H-indol-6-ylphosphonate] showed a pIC50 greater than 6.00. `CC(=O)c1cn(CC(=O)N2C[C@H](F)C[C@H]2C(=O)NCc2cccc(Cl)c2F)c2cc(P(=O)(O)O)c(F)cc12` [Compound 31, 3-acetyl-1-(2-((2S,4R)-2-(3-chloro-2-fluorobenzylcarbamoyl)-4-fluoropyrrolidin-1-yl)-2-oxoethyl)-5-fluoro-1H-indol-6-ylphosphonic acid] showed a pIC50 greater than 6.00. `O=C(NCc1cccc(Cl)c1F)[C@@H]1C[C@@H](F)CN1C(=O)Cn1cc(C(=O)C(F)(F)F)c2ccc(P(=O)(O)O)cc21` [Compound 32, 1-(2-((2S,4R)-2-(3-chloro-2-fluorobenzylcarbamoyl)-4-fluoropyrrolidin-1-yl)-2-oxoethyl)-3-(2,2,2-trifluoroacetyl)-1H-indol-6-ylphosphonic acid] gave a pIC50 greater than 6.00.
